Where two headings read alike, the source gives them in different places.
How the values were obtained:
Assay type in all cases: cell-based
HeLa (cervical cancer) = assay: Antiproliferative activity (CCK-8 cell viability), HeLa; details: Homo sapiens, 72 h; for inhibition at 3.3 µM: Compound concentration: 3.3 μM; for inhibition at 10 µM: Compound concentration: 10 μM; for inhibition at 30 µM: Compound concentration: 30 μM
Procedure, shortened: (§1)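 Growth inhibition graded in bands from percent viability against DMSO vehicle, read as CCK-8 absorbance at 450 nm. Compound tested at 3.3, 10 or 30 μM for 72 h, 37 °C; media contained 10% FBS: DMEM for HepG2/SW480, MEM for HeLa, F-12K for A549.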

SW480 (colon cancer) = assay: Antiproliferative activity (CCK-8 cell viability), SW480; details: Homo sapiens, 72 h, read-out: Antiproliferative activity in cancerous cells, SW480 (inhibition of cell growth); for inhibition at 3.3 µM: Compound concentration: 3.3 μM; for inhibition at 10 µM: Compound concentration: 10 μM
Procedure, shortened: as §1

[1] = test system: alpha-smooth muscle actin (α-SMA); assay: Inhibition of TGF-β induced expression of alpha-smooth muscle actin (α-SMA) in CFSC cells (western blot); details: compound at 10 μM, TGF-β (10 ng/mL), 24 hours, band intensity vs TGF-β only
Procedure, shortened: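 Values are percent reduction of α-SMA band intensity relative to cells given TGF-β alone, quantified by Western blot densitometry with β-actin probed. Compound was applied at 10 μM alongside 10 ng/mL TGF-β to serum-free CFSC cultures for 24 h at 37 °C.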

[2] = test system: MDA-MB-231 (breast cancer); assay: Antiproliferative activity (CCK-8 cell viability), MDA-MB-231; details: Homo sapiens, 72 h, read-out: Antiproliferative activity in cancerous cells, MDA-MB-231 (inhibition of cell growth); for inhibition at 3.3 µM: Compound concentration: 3.3 μM; for inhibition at 10 µM: Compound concentration: 10 μM
Procedure, shortened: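 Growth inhibition of human MDA-MB-231 breast cancer cells was assessed with a Cell Counting Kit-8. Cells cultured in DMEM plus 10% FBS were seeded at 2,000-5,000 cells/well, treated after attachment, and kept 72 h at 37° C. CCK-8 solution (10 μL) was added for 4 h, and absorbance at 450 nm was compared with DMSO-treated controls.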

[3] = test system: A431 (epidermoid carcinoma); assay: Antiproliferative activity (CCK-8 cell viability), A431; details: Homo sapiens, 72 h; for inhibition at 3.3 µM: A-431, Compound concentration: 3.3 μM; for inhibition at 10 µM: A-431, Compound concentration: 10 μM; for inhibition at 30 µM: A-431, Compound concentration: 30 μM
Procedure, shortened: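 This growth inhibition assay used A431 cells maintained in Dulbecco's modified Eagle's medium plus 10% fetal bovine serum. Cells were seeded in 96-well plates, treated with compound for 72 h at 37° C., and then given 10 μL CCK-8 solution. After a further 4 h, absorbance was read at 450 nm.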

[4] = test system: B16F10 (malignant melanoma); assay: Antiproliferative activity (CCK-8 cell viability), B16F10; details: Mus musculus, 72 h; for inhibition at 3.3 µM: B16-F10, Compound concentration: 3.3 μM; for inhibition at 10 µM: B16-F10, Compound concentration: 10 μM; for inhibition at 30 µM: B16-F10, Compound concentration: 30 μM
Procedure, shortened: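 Cell growth inhibition was measured in B16F10 malignant melanoma cells with a Cell Counting Kit-8 viability assay. Cells were maintained in DMEM plus 10% fetal bovine serum, seeded at 2,000-5,000 cells/well in 96-well plates, and treated for 72 h at 37° C. Viability was expressed relative to DMSO-treated vehicle control wells.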

HepG2 (liver cancer) = assay: Antiproliferative activity (CCK-8 cell viability), HepG2; details: Homo sapiens, 72 h, read-out: Antiproliferative activity in cancerous cells, HepG2 (inhibition of cell growth); for inhibition at 3.3 µM: Compound concentration: 3.3 μM; for inhibition at 10 µM: Compound concentration: 10 μM
Procedure, shortened: as §1

[5] = test system: A549 (lung adenocarcinoma); assay: Antiproliferative activity (CCK-8 cell viability), A549; details: Homo sapiens, 72 h; for inhibition at 3.3 µM: Compound concentration: 3.3 μM; for inhibition at 10 µM: Compound concentration: 10 μM; for inhibition at 30 µM: Compound concentration: 30 μM
Procedure, shortened: as §1

[6] = read-out: Antiproliferative activity in cancerous cells, HELA (inhibition of cell growth)
[7] = read-out: Antiproliferative activity in cancerous cells, A431 (inhibition of cell growth)
[8] = read-out: Antiproliferative activity in cancerous cells, B16F10 (inhibition of cell growth)
[9] = read-out: Antiproliferative activity in cancerous cells, A549 (inhibition of cell growth)
[10] = read-out: Antiproliferative activity in cancerous cells, A549

## CC1=C(CCC(=O)O)c2ccccc2/C1=C/c1cccc(Oc2ccccc2)c1 [E10, (E)-3-(2-Methyl-1-(3-phenoxybenzylidene)-1H-inden-3-yl)propanoic acid]
HeLa (cervical cancer); [6]
  inhibition at 3.3 µM: < 30%
  inhibition at 10 µM: < 30%
  inhibition at 30 µM: < 30%
SW480 (colon cancer)
  inhibition at 3.3 µM: < 30%
  inhibition at 10 µM: < 30%
SW480 (colon cancer); Compound concentration: 30 μM
  inhibition at 30 µM: 30 to 50%
[1]
  inhibition at 10 µM: < 30%
[2]
  inhibition at 3.3 µM: < 30%
  inhibition at 10 µM: < 30%
[2]; Compound concentration: 30 μM
  inhibition at 30 µM: ≥ 50%
[3]; [7]
  inhibition at 3.3 µM: < 30%
  inhibition at 10 µM: < 30%
  inhibition at 30 µM: < 30%
[4]; [8]
  inhibition at 3.3 µM: < 30%
  inhibition at 10 µM: < 30%
  inhibition at 30 µM: 30 to 50%
HepG2 (liver cancer)
  inhibition at 3.3 µM: < 30%
  inhibition at 10 µM: < 30%
HepG2 (liver cancer); Compound concentration: 30 μM
  inhibition at 30 µM: < 30%
[5]; [9]
  inhibition at 3.3 µM: < 30%
  inhibition at 10 µM: 30 to 50%
  inhibition at 30 µM: ≥ 50%

## CC1=C(CC(=O)O)c2cc(F)ccc2/C1=C\c1ccc(COc2ccc(C(F)(F)F)cc2)cc1 [B2, (Z)-2-(5-Fluoro-2-methyl-1-(4-((4-(trifluoromethyl)phenoxy)methyl)-benzylidene)-1H-inden-3-yl)acetic acid]
HeLa (cervical cancer); [6]
  inhibition at 3.3 µM: < 30%
  inhibition at 10 µM: < 30%
HeLa (cervical cancer); read-out: Antiproliferative activity in cancerous cells, HELA
  inhibition at 30 µM: 30 to 50%
SW480 (colon cancer)
  inhibition at 3.3 µM: ≥ 50%
  inhibition at 10 µM: ≥ 50%
[1]
  inhibition at 10 µM: > 80%
[2]
  inhibition at 3.3 µM: 30 to 50%
  inhibition at 10 µM: ≥ 50%
[3]; [7]
  inhibition at 3.3 µM: 30 to 50%
  inhibition at 10 µM: ≥ 50%
[4]; [8]
  inhibition at 3.3 µM: ≥ 50%
  inhibition at 10 µM: ≥ 50%
HepG2 (liver cancer)
  inhibition at 3.3 µM: 30 to 50%
  inhibition at 10 µM: ≥ 50%
[5]; [9]
  inhibition at 3.3 µM: ≥ 50%
  inhibition at 10 µM: ≥ 50%

## O=C(O)CC1=C(Cc2ccc(C(F)(F)F)cc2)/C(=C/c2cccc(COc3ccccc3)c2)c2ccc(F)cc21 [A10, (Z)-2-(5-Fluoro-1-(3-(phenoxymethyl)benzylidene)-2-(4-(trifluoromethyl)-benzyl)-1H-inden-3-yl)acetic acid]
HeLa (cervical cancer); [6]
  inhibition at 3.3 µM: ≥ 50%
  inhibition at 10 µM: ≥ 50%
SW480 (colon cancer)
  inhibition at 3.3 µM: ≥ 50%
  inhibition at 10 µM: ≥ 50%
[1]
  inhibition at 10 µM: > 80%
[2]
  inhibition at 3.3 µM: ≥ 50%
  inhibition at 10 µM: ≥ 50%
[3]; [7]
  inhibition at 3.3 µM: ≥ 50%
  inhibition at 10 µM: ≥ 50%
[4]; [8]
  inhibition at 3.3 µM: ≥ 50%
  inhibition at 10 µM: ≥ 50%
HepG2 (liver cancer)
  inhibition at 3.3 µM: ≥ 50%
  inhibition at 10 µM: ≥ 50%
[5]; [9]
  inhibition at 3.3 µM: 30 to 50%
  inhibition at 10 µM: ≥ 50%

## CC1=C(CCO)c2cc(F)ccc2/C1=C\c1ccc(Oc2ccc(F)cc2)cc1 [A201, (Z)-2-(5-Fluoro-1-(4-(4-fluorophenoxy)benzylidene)-2-methyl-1H-inden-3-yl)-ethan-1-ol]
HeLa (cervical cancer); [6]
  inhibition at 3.3 µM: 30 to 50%
  inhibition at 10 µM: ≥ 50%
SW480 (colon cancer)
  inhibition at 3.3 µM: ≥ 50%
  inhibition at 10 µM: ≥ 50%
[1]
  inhibition at 10 µM: < 30%
[2]
  inhibition at 3.3 µM: 30 to 50%
  inhibition at 10 µM: ≥ 50%
[3]; [7]
  inhibition at 3.3 µM: ≥ 50%
  inhibition at 10 µM: ≥ 50%
[4]; [8]
  inhibition at 3.3 µM: < 30%
  inhibition at 10 µM: ≥ 50%
HepG2 (liver cancer)
  inhibition at 3.3 µM: ≥ 50%
  inhibition at 10 µM: ≥ 50%
[5]; [9]
  inhibition at 3.3 µM: 30 to 50%
  inhibition at 10 µM: ≥ 50%

## COc1ccc2c(c1)C(CC(=O)O)=C(C)/C2=C/c1cccc(COc2ccccc2)c1 [B20, (Z)-2-(5-Methoxy-2-methyl-1-(3-(phenoxymethyl)benzylidene)-1H-inden-3-yl)-acetic acid]
HeLa (cervical cancer); [6]
  inhibition at 3.3 µM: < 30%
  inhibition at 10 µM: 30 to 50%
SW480 (colon cancer)
  inhibition at 3.3 µM: 30 to 50%
  inhibition at 10 µM: 30 to 50%
[1]
  inhibition at 10 µM: > 80%
[2]
  inhibition at 3.3 µM: 30 to 50%
  inhibition at 10 µM: 30 to 50%
[3]; [7]
  inhibition at 3.3 µM: < 30%
  inhibition at 10 µM: < 30%
[3]; read-out: Antiproliferative activity in cancerous cells, A431
  inhibition at 30 µM: < 30%
[4]; [8]
  inhibition at 3.3 µM: < 30%
  inhibition at 10 µM: < 30%
[4]; read-out: Antiproliferative activity in cancerous cells, B16F10
  inhibition at 30 µM: < 30%
HepG2 (liver cancer)
  inhibition at 3.3 µM: < 30%
  inhibition at 10 µM: < 30%
[5]; [9]
  inhibition at 3.3 µM: < 30%
  inhibition at 10 µM: < 30%
[5]; [10]
  inhibition at 30 µM: < 30%

## CC(C)c1ccc(/C=C2/C(Cc3ccc(Oc4ccc(F)cc4)cc3)=C(CC(=O)O)c3cc(F)ccc32)cc1 [A103, (Z)-2-(5-Fluoro-2-(4-(4-fluorophenoxy)benzyl)-1-(4-isopropylbenzylidene)-1H-inden-3-yl)acetic acid]
HeLa (cervical cancer); [6]
  inhibition at 3.3 µM: ≥ 50%
  inhibition at 10 µM: ≥ 50%
SW480 (colon cancer)
  inhibition at 3.3 µM: ≥ 50%
  inhibition at 10 µM: ≥ 50%
[1]
  inhibition at 10 µM: > 80%
[2]
  inhibition at 3.3 µM: ≥ 50%
  inhibition at 10 µM: ≥ 50%
[3]; [7]
  inhibition at 3.3 µM: ≥ 50%
  inhibition at 10 µM: ≥ 50%
[4]; [8]
  inhibition at 3.3 µM: ≥ 50%
  inhibition at 10 µM: ≥ 50%
HepG2 (liver cancer)
  inhibition at 3.3 µM: ≥ 50%
  inhibition at 10 µM: ≥ 50%
[5]; [9]
  inhibition at 3.3 µM: ≥ 50%
  inhibition at 10 µM: ≥ 50%

## O=C(O)CC1=C(Cc2ccc(Oc3ccc(F)cc3)cc2)/C(=C/c2ccc(C(F)(F)F)cc2)c2ccc(F)cc21 [A108, (Z)-2-(5-Fluoro-2-(4-(4-fluorophenoxy)benzyl)-1-(4-(trifluoromethyl)-benzylidene)-1H-inden-3-yl)acetic acid]
HeLa (cervical cancer); [6]
  inhibition at 3.3 µM: < 30%
  inhibition at 10 µM: ≥ 50%
SW480 (colon cancer)
  inhibition at 3.3 µM: < 30%
  inhibition at 10 µM: ≥ 50%
[1]
  inhibition at 10 µM: > 80%
[2]
  inhibition at 3.3 µM: ≥ 50%
  inhibition at 10 µM: ≥ 50%
[3]; [7]
  inhibition at 3.3 µM: ≥ 50%
  inhibition at 10 µM: ≥ 50%
[4]; [8]
  inhibition at 3.3 µM: ≥ 50%
  inhibition at 10 µM: ≥ 50%
HepG2 (liver cancer)
  inhibition at 3.3 µM: < 30%
  inhibition at 10 µM: < 30%
[5]; [9]
  inhibition at 3.3 µM: ≥ 50%
  inhibition at 10 µM: ≥ 50%

## C=CC1=C(CC(=O)O)c2ccccc2/C1=C\c1ccc(Oc2ccc(F)cc2)cc1 [C25, (Z)-2-(1-(4-(4-Fluorophenoxy)benzylidene)-2-vinyl-1H-inden-3-yl)acetic acid]
HeLa (cervical cancer); [6]
  inhibition at 3.3 µM: 30 to 50%
  inhibition at 10 µM: 30 to 50%
SW480 (colon cancer)
  inhibition at 3.3 µM: 30 to 50%
  inhibition at 10 µM: 30 to 50%
[1]
  inhibition at 10 µM: < 30%
[2]
  inhibition at 3.3 µM: ≥ 50%
  inhibition at 10 µM: ≥ 50%
[3]; [7]
  inhibition at 3.3 µM: < 30%
  inhibition at 10 µM: < 30%
[4]; [8]
  inhibition at 3.3 µM: ≥ 50%
  inhibition at 10 µM: ≥ 50%
HepG2 (liver cancer)
  inhibition at 3.3 µM: < 30%
  inhibition at 10 µM: < 30%
[5]; [9]
  inhibition at 3.3 µM: < 30%
  inhibition at 10 µM: 30 to 50%
[5]; [10]
  inhibition at 30 µM: 30 to 50%

Source: patent publication US20260184663A1, “INDENE COMPOUNDS, PHARMACEUTICAL COMPOSITIONS THEREOF, AND THEIR THERAPEUTIC APPLICATIONS” (NucMito Pharmaceuticals co. Ltd., priority 2022, published 2026)
